Values after ≈ are worked out from the molar mass of the structure shown. Values joined by “and” are separate entries in the source; they are usually repeats but may differ in a detail not shown here. Equal values may be shown once. One block for each compound: values may come before it. Active and inactive are the calls of the source. The calls are words filed in the database; no cut-off is given here.
Key:
[1] = Compound was tested for inhibitory activity against tryptophanyl tRNA synthetase in Staphylococcus aureus; format: nucleic-acid assay
Nucleic Acid [2] = assay: Compound was tested for inhibitory activity against tryptophanyl tRNA synthetase in Staphylococcus aureus; NI means no inhibition uM; format: nucleic-acid assay
Moraxella catarrhalis [3] = assay: Minimum inhibitory concentration against Moraxella catarrhalis 1502 at a concentration of 32 ug/mL; format: functional, organism-based
Staphylococcus aureus [4] = assay: Minimum inhibitory concentration against Staphylococcus aureus Oxford at a concentration of 32 ug/mL; format: functional, organism-based
Haemophilus influenzae [5] = assay: Minimum inhibitory concentration against Haemophilus influenzae Q1 at a concentration of 32 ug/mL; format: functional, organism-based
Nucleic Acid [6] = assay: Compound was tested for inhibitory activity against tryptophanyl tRNA synthetase in Staphylococcus aureus Oxford; No significant inhibition up to 20 uM concentration; format: nucleic-acid assay
Nucleic Acid [7] = assay: Binding affinity against Tryptophanyl tRNA synthetase was determined; format: nucleic-acid assay, Staphylococcus aureus
Haemophilus influenzae [8] = assay: Minimum inhibitory concentration against Haemophilus influenzae Q1; format: functional
Moraxella catarrhalis [9] = assay: Minimum inhibitory concentration against Moraxella catarrhalis 1502; format: functional
Staphylococcus aureus [10] = assay: Minimum inhibitory concentration against Staphylococcus aureus oxford; format: functional

SMILES: CC1c2c[nH]c3cccc(c23)SC1C(=O)NO (stereo unspecified)
IC50 (Nucleic Acid [2]): No inhibition

SMILES: O=C([O-])[C@@H]1Sc2cccc3[nH]cc(c23)[C@@H]1CO.[Na+]
MIC (Moraxella catarrhalis [3]): inactive
MIC (Staphylococcus aureus [4]): inactive
IC50 (Nucleic Acid [2]): No inhibition
MIC (Haemophilus influenzae [5]): inactive

SMILES: COC(=O)C1Sc2cccc3[nH]cc(c23)C1C (stereo unspecified)
Activity (Nucleic Acid [6]): No significant inhibition up to 20 uM concentration

SMILES: CC1c2c[nH]c3cccc(c23)SC1c1nnn[nH]1 (stereo unspecified)
IC50 (Nucleic Acid [2]): No inhibition

SMILES: CC1c2c[nH]c3cccc(c23)SC1C(N)=O (stereo unspecified)
Activity (Nucleic Acid [6]): No significant inhibition up to 20 uM concentration

More lines, now with the values ahead:

IC50 [1]: 1.1 µM
SMILES: CC1c2c[nH]c3cccc(c23)SC1C#N (stereo unspecified)

IC50 [1]: 0.03 µM and 0.2 µM
Ki (Nucleic Acid [7]): 0.02 µM
SMILES: C[C@H]1c2c[nH]c3cccc(c23)S[C@H]1C(=O)O [CHUANGXINMYCIN]

MIC (Haemophilus influenzae [8]): 16 mg/L (≈ 69.2 µM)
MIC (Moraxella catarrhalis [9]): 16 mg/L (≈ 69.2 µM)
MIC (Staphylococcus aureus [10]): 4 mg/L (≈ 17.3 µM)
IC50 [1]: 0.23 µM
SMILES: O=C1OC[C@H]2c3c[nH]c4cccc(c34)S[C@@H]12

IC50 [1]: 0.09 µM
SMILES: CC1c2c[nH]c3cccc(c23)SC1C=O (stereo unspecified)
